# Source: patent US20040232089A1, “Biocidal compounds for treating water” (VANETTA S.p.A., priority 2003, published 2004)
# Tests used:
# [1] = Photo-degradability under daylight and UV; assay type: physicochemical; conditions: 10 ppm in drinking water (pH 6,5-7,5)
# Procedure: Similarly, the same behaviour is confirmed when evaluating the photo-degradability under daylight and UV (the irradiation test is carried out on a solution of 10 ppm in drinking water (pH 6,5-7,5)).
# [2] = test system: Chlorella sp.; experiment: Inhibition of planktonic microalgae duplication; assay type: cell-based; conditions: after 96 hours of treatment
# Procedure: This test was carried out by using the microalga Chlorella sp., it is a small (2-10 microns diameter) green single celled microalga with a spherical cell shape. This genus is capable of both autotrophic and heterotrophic growth which may contribute to its ability to rapidly overtake other algae in culture. In laboratory, Chlorella coltures are started by taking from the branchs, inoculates basis, about 10 ml of monospecific colture, and adding 700 ml of […] filtered sea-water, enriched with Walne colture medium and vitamins.
# Flasks with algae are kept in a thermostatic room, at 20° C.±0,5; lighting is supplied by 30 watt fluorescent neon tubes and by a 18 watt Osram-fluora lamp, with a photoperiod 16:8 light:dark. Oxygenation is warranted by a continuous air flux in the flask, this is also a way to avoid cells sedimentation. Test was carried out in the thermostatic room, at 20° C., with a 16:8 light:dark cycle in glass test-tube. The tested product has been dissolved in the culture medium, at a double concentration respect to the final wanted. […] Test-tubes were aerated, and kept in thermostatic room for 96 hours; after this period of time an aliquot of each replicate for each concentration was taken, and cellular densities were counted using an haemocytometer.
# [3] = test system: nauplii of Artemia salina; experiment: Artemia efficacy test
# Procedure: This efficacy test was carried out by using nauplii of Artemia salina (Crustacea: Anacostraca).
# Cysts reactivation has been carried out 24 hours before the execution of tests. […] Beakers, hermetically closed and aerated with pre-filtered air (0,22 μm), were incubated for 24 hours at 25° C., without photoperiod. For the tests E3 developing stage nauplii were employed (24 hours after cysts reactivation). Nauplii were divided from not-opened cysts by exploiting their positive fototactism: a light beam is placed near the beaker, obtaining a considerable concentration of organisms, that can be taken by using a Pasteur pipette. The following MNB concentrations have been tested: 0-0.05-0.1-0.5-1-5-10 ppm (mg/L). These solutions have been prepared immediately before carrying out the tests using natural filtered (0.22 μm) sea water (NFSW). For tests, multiwell plates (25 wells) have been used, each well has a capacity of 4 ml. In the first column there was the control solution (water without product), and in the following the different concentrations in increasing order. In each well about 20-25 individuals were added, each concentration was repeated in four replicates. Multiwell plates, hermetically closed with parafilm and lid, were incubated at dark for 24-48 hours at 25° C. […] Larvae were considered dead when there was completely no movement for 10 seconds.
# Mortality percentage was calculated as the mean of the four replicates for each concentration. Data were analysed by using the Probits method, in order to calculate the lethal concentration for the 50% of the population (LC50).
smiles,measurement,setting,value
"CC1(S(=O)(=O)O)CC(=O)c2ccccc2C1=O.NC(=O)c1cccnc1 (centres unmarked) [MNB, menadione nicotinamide bisulphite]",Light exp. Tot Degr.,[1],48 h
same,Light exp. ½ life,[1],10 h
same,LC1,[2],0.002 mg/L
same,LC50,[2],0.055 µg/mL
same,LC1,[3]; 24 hours,3.170 mg/L
same,LC50,[3]; 24 hours,7.625 µg/mL
same,LC1,[3]; 48 hours,0.548 mg/L
same,LC50,[3]; 48 hours,1.840 µg/mL
